Converted amounts (≈) assume the structure as drawn.

The test system of the assay is Mycobacterium tuberculosis. Nature of the assay: Antimycobacterial activity against Mycobacterium tuberculosis H37Rv by MABA method. It counts as functional. For orientation: Alamar Blue is a resazurin reagent that responds to reducing activity.
What is called MIC99 is the lowest concentration that inhibits either 99% of growth or 99% of the strains tested, depending on the study. In turn, `COc1ccc(CCN(CCCC(C#N)(c2ccc(OC)c(OC)c2)C(C)C)C2CC2)cc1OC` (stereo not drawn) yielded an MIC99 of 125 µM (≈ 60.1 µg/mL).

Consider `CCN(CCCC(C#N)(c1ccc(OC)c(OC)c1)C(C)C)CCc1ccc(OC)c(OC)c1` (stereo not drawn), for which the MIC99 is 1000 µM (≈ 469 µg/mL).

With `CCCN(CCCC(C#N)(c1ccc(OC)c(OC)c1)C(C)C)CCc1ccc(OC)c(OC)c1` (stereo not drawn), the MIC99 was 500 µM (≈ 241 µg/mL).

In turn, `COc1ccc(CCN(CCCC(C#N)(c2ccc(OC)c(OC)c2)C(C)C)Cc2ccccc2)cc1OC` (stereo not drawn) showed an MIC99 of 1000 µM (≈ 531 µg/mL).

Consider `COc1ccc(N(C)CCCC(C#N)(c2ccc(OC)c(OC)c2)C(C)C)cc1OC` (stereo not drawn), for which the MIC99 turned out to be 1000 µM (≈ 427 µg/mL).

`COc1ccc(CN(C)CCCC(C#N)(c2ccc(OC)c(OC)c2)C(C)C)cc1OC` (stereo not drawn) yielded an MIC99 of 1000 µM (≈ 441 µg/mL).

As for `COc1ccc(C(C#N)(CCCN2CCCCC2)C(C)C)cc1OC` (stereo not drawn), the MIC99 is 1000 µM (≈ 344 µg/mL).

`COc1ccc(C(C#N)(CCCN2CCOCC2)C(C)C)cc1OC` (stereo not drawn): the MIC99 worked out at 1000 µM (≈ 346 µg/mL).

`COc1ccc(C(C#N)(CCCN2CCC(O)CC2)C(C)C)cc1OC` (stereo not drawn) came in with an MIC99 of 1000 µM (≈ 360 µg/mL).

Consider `COc1ccc(C(C#N)(CCCN2CCC(N3CCCCC3)CC2)C(C)C)cc1OC` (stereo not drawn), for which the MIC99 amounted to 500 µM (≈ 214 µg/mL).

For `COc1ccc(C(C#N)(CCCN2CCC(O)(c3ccccc3)CC2)C(C)C)cc1OC` (stereo not drawn), the MIC99 amounted to 250 µM (≈ 109 µg/mL).

In turn, `COc1ccc(C(C#N)(CCCN2CCN(c3ccccc3)CC2)C(C)C)cc1OC` (stereo not drawn) came in with an MIC99 of 250 µM (≈ 105 µg/mL).

`COc1ccc(C(C#N)(CCCN2CCN(c3ccccn3)CC2)C(C)C)cc1OC` (stereo not drawn) gave an MIC99 of 250 µM (≈ 106 µg/mL).

Turning to `COc1ccc(C(C#N)(CCCN2CCN(c3ccccc3F)CC2)C(C)C)cc1OC` (stereo not drawn), the MIC99 was determined as 62.5 µM (≈ 27.5 µg/mL).

As for `COc1ccc(CCN(C)CCCC(C#N)c2ccc(OC)c(OC)c2)cc1OC` (stereo not drawn), the MIC99 was 1000 µM (≈ 413 µg/mL).

Molecule `COc1ccc(CCN(C)CCCC(C)(C#N)c2ccc(OC)c(OC)c2)cc1OC` (stereo not drawn) showed an MIC99 of 1000 µM (≈ 427 µg/mL).

`CCC(C#N)(CCCN(C)CCc1ccc(OC)c(OC)c1)c1ccc(OC)c(OC)c1` (stereo not drawn): the MIC99 was 1000 µM (≈ 441 µg/mL).

In turn, `CCCC(C#N)(CCCN(C)CCc1ccc(OC)c(OC)c1)c1ccc(OC)c(OC)c1` (stereo not drawn) had an MIC99 of 500 µM (≈ 227 µg/mL).

As to `COc1ccc(CCN(C)CCCC(C#N)(c2ccc(OC)c(OC)c2)C2CCCC2)cc1OC` (stereo not drawn), the MIC99 was 125 µM (≈ 60.1 µg/mL).

As to `COc1ccc(CCN(C)CCCC(C#N)(c2ccc(OC)c(OC)c2)C2CCCCC2)cc1OC` (stereo not drawn), the MIC99 worked out at 62.5 µM (≈ 30.9 µg/mL).

Regarding `COc1ccc(CCNCCCC(C#N)(c2ccc(OC)c(OC)c2)C(C)C)cc1OC` (stereo not drawn) [NORVERAPAMIL], the MIC99 was determined as 500 µM (≈ 220 µg/mL).

Molecule `CO[C@H]1/C=C/O[C@@]2(C)Oc3c(C)c(O)c4c(O)c(c(/C=N/N5CCN(C)CC5)c(O)c4c3C2=O)NC(=O)/C(C)=C\C=C\[C@H](C)[C@H](O)[C@@H](C)[C@@H](O)[C@@H](C)[C@H](OC(C)=O)[C@@H]1C` [RIFAMPIN] registered an MIC99 of 0.0083 µM (≈ 0.00683 µg/mL).

The molecule `COc1ccc(CCN(C)CCCC(C#N)(c2ccc(OC)c(OC)c2)C(C)C)cc1OC` (stereo not drawn) [VERAPAMIL] yielded an MIC99 of 500 µM (≈ 227 µg/mL).
